Laboratory results from patent US6887896B1, “7-[(7-Alkoxy)-chrom-3-en-6-yl]-heptatrienoic acid and 7-[(3-alkoxy)-5,6-dihydronaphthalen-2-yl]-heptatrienoic acid derivatives having serum glucose reducing activity” (Allergan, Inc., priority 2003, dated 2005).

Test system: ob/ob mice
Assay: serum glucose, triglycerides and T4 in ob/ob mice, drug mixed in control diet over 7 days
Type: in vivo
Conditions: 30 mg/kg per day in diet; for Glucose Day 0 / Triglycerides Day 0: day 0 (pre-treatment)

Structure (SMILES) | Glucose Day 3, 3 h [mg/dL] | Glucose Day 6, 3 h [mg/dL] | T4 Day 7 [µg/dL] | Triglycerides Day 3, 3 h [mg/dL] | Glucose Day 0 [mg/dL] | Triglycerides Day 0 [mg/dL]
CCOc1c(\C(C)=C(F)/C=C/C(C)=C/C(=O)O)cc2c(c1Cl)OC(C)(C)C=C2C(C)C [Compound 172, 7-(8-Chloro-4-isopropyl-7-ethoxy-2,2-dimethyl-2H-chromen-6-yl)-6-fluoro-3-methyl-octa-2E,4E,6E-trienoic acid] | 193 | 206 | 4.5 | 68 ± 22 | 292 | 107
CCOc1c(\C(C)=C/C=C/C(C)=C/C(=O)O)cc2c(c1Cl)OC(C)(C)C=C2C(C)C [Compound 50, 7-(8-Chloro-4-isopropyl-7-ethoxy-2,2-dimethyl-2H-chromen-6-yl)-3-methyl-octa-2E,4E,6Z-trienoic acid] | 209 | 237 | 4.5 | 90 ± 33 | 288 | 122
